The nature of this data set: physchem. In kind it is physicochemical. The source says:
Several salts of eletriptan have been identified that have properties which make them particularly suitable for development as drug substances. […] It is therefore desirable to provide a controlled release formulation capable of achieving a sigmoidal pattern of drug release and suitable for oral administration that is equally useful for the delivery of any form of eletriptan, regardless of its solubility.

Values after ≈ are worked out from the molar mass of the structure shown. Counter-ions that a name gives are not always drawn. Bounds are passed on as bounds.

For the compound `CN1CCC[C@@H]1Cc1c[nH]c2ccc(CCS(=O)(=O)c3ccccc3)cc12` [eletriptan free base, 3-{[1-methylpyrrolidin-2(R)-yl]methyl}-5-(2-phenylsulfonylethyl)-1H-indole], the aqueous solubility (in general, the dissolved amount per volume that the medium holds) was found to be 2500 µg/mL (≈ 6.54 mM). Turning to `CN1CCC[C@@H]1Cc1c[nH]c2ccc(CCS(=O)(=O)c3ccccc3)cc12` [hydrobromide salt, eletriptan hydrobromide], the solubility (in general, the concentration that dissolves in the medium under given conditions) (20 °C, water, aqueous solubility) amounted to 4000 µg/mL.

Take “eletriptan hemisulphate [hemisulphate salt]”: the aqueous solubility was greater than 200000 µg/mL.

Values taken from patent US20020034545A1, “Particulate composition of eletriptan” (priority 2000, published 2002).
